Measured values reported in patent US20260078130A1, “NAMPT MODULATORS, PREPARATIONS, AND USES THEREOF” (SIRONAX LTD., priority 2022, published 2026).

Target: T1, human enzyme NAMPT (full length) (Homo sapiens, UniProt P43490)
T1 construct: human enzyme NAMPT (full length)
Assay: NMN fluorescence biochemical assay (stimulation of NMN synthesis by NAMPT)
Settings: for EC50: NMN fluorescence assay, purified human NAMPT 100 nM, concentration giving half-maximal activation, read-out: Enzymatic EC50; for Enzymatic Emax: fold change of maximal activation compared to DMSO
Summary of the method: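 Full-length human NAMPT (100 nM) was preincubated 15 min at 37 °C with compound in 50 mM Tris-HCl pH 7.5, 10 mM MgCl2, 2 mM DTT, then reacted 1 h at 37 °C with 50 μM NAM, 100 μM PRPP, 4 mM ATP (stated solution concentrations). NMN was derivatised with acetophenone/KOH then formic acid and read at Ex/Em 382/445 nm; EC50 and Emax (fold over DMSO) reported.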

T1 sequence (P43490 whole entry): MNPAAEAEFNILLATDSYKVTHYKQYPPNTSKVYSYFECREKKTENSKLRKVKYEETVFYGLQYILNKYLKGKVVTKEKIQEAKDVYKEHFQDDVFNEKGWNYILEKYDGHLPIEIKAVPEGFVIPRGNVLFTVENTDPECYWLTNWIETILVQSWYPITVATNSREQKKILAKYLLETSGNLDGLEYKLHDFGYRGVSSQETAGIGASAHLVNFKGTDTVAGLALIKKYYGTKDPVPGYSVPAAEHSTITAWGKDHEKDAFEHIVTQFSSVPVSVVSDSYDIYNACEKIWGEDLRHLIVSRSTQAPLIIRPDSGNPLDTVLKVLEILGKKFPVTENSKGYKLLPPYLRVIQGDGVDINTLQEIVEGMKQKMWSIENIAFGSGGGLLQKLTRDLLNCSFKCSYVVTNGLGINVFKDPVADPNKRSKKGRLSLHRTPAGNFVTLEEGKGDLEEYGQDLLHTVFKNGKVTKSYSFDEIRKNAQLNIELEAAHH

SMILES: CN(C)c1ccc2c(c1)C(Cc1c(Cl)cnn1C)N(CC1CC3(CNC(=O)O3)C1)C2=O (stereo not drawn) [Compound 498, 2-((3-((4-chloro-1-methyl-1H-pyrazol-5-yl)methyl)-5-(dimethylamino)-1-oxoisoindolin-2-yl)methyl)-5-oxa-7-azaspiro[3.4]octan-6-one]
- EC50: < 0.5 µM
- Enzymatic Emax: B (3≥B>2)

SMILES: Cn1nc(Cl)c(Cl)c1CC1c2ccccc2C(=O)N1C[C@H]1C[C@@]2(CNC(=O)O2)C1 (stereo partly drawn) [Compound 499, (2s,4s)-2-((1-((3,4-dichloro-1-methyl-1H-pyrazol-5-yl)methyl)-3-oxoisoindolin-2-yl)methyl)-5-oxa-7-azaspiro[3.4]octan-6-one]
- EC50: < 0.5 µM
- Enzymatic Emax: B (3≥B>2)

SMILES: Cn1nc(Cl)c(Cl)c1CC1c2ccccc2C(=O)N1C[C@H]1C[C@@]2(CNC(=O)O2)C1 (stereo partly drawn) [Compound 500, (2r,4r)-2-((1-((3,4-dichloro-1-methyl-1H-pyrazol-5-yl)methyl)-3-oxoisoindolin-2-yl)methyl)-5-oxa-7-azaspiro[3.4]octan-6-one]
- EC50: 0.5 to 5 µM
- Enzymatic Emax: C (2≥C)

SMILES: Cn1cc(C#CCN2C(=O)c3ccccc3C2Cc2c(Cl)cnn2C)cn1 (stereo not drawn) [Compound 501, 3-((4-chloro-1-methyl-1H-pyrazol-5-yl)methyl)-2-(3-(1-methyl-1H-pyrazol-4-yl)prop-2-yn-1-yl)isoindolin-1-one]
- EC50: 0.5 to 5 µM
- Enzymatic Emax: C (2≥C)

SMILES: Cn1ncc(Cl)c1CC1c2ccccc2C(=O)N1Cc1ccccc1 (stereo not drawn) [Compound 502, 2-benzyl-3-((4-chloro-1-methyl-1H-pyrazol-5-yl)methyl)isoindolin-1-one]
- EC50: ≥ 5 µM
- Enzymatic Emax: C (2≥C)

SMILES: Cc1ccc(CN2C(=O)c3ccccc3C2Cc2c(Cl)cnn2C)cc1 (stereo not drawn) [Compound 503, 3-((4-chloro-1-methyl-1H-pyrazol-5-yl)methyl)-2-(4-methylbenzyl)isoindolin-1-one]
- EC50: ≥ 5 µM
- Enzymatic Emax: C (2≥C)

SMILES: Cc1n[nH]cc1/C=C(/F)CN1C(=O)c2ccccc2C1Cc1c(Cl)cnn1C (stereo not drawn) [Compound 504, (E)-3-((4-chloro-1-methyl-1H-pyrazol-5-yl)methyl)-2-(2-fluoro-3-(3-methyl-1H-pyrazol-4-yl)allyl)isoindolin-1-one]
- EC50: 0.5 to 5 µM
- Enzymatic Emax: B (3≥B>2)

SMILES: O=C1c2ccccc2C(Cc2ncccc2Br)N1Cc1ncc(O)cn1 (stereo not drawn) [Compound 505, 3-((3-bromopyridin-2-yl)methyl)-2-((5-hydroxypyrimidin-2-yl)methyl)isoindolin-1-one]
- EC50: ≥ 5 µM
- Enzymatic Emax: C (2≥C)

SMILES: Cc1cc(F)c2c(c1)C(Cc1c(Cl)cnn1C)N(CC1CC3(CNC(=O)O3)C1)C2=O (stereo not drawn) [Compound 506, 2-((1-((4-chloro-1-methyl-1H-pyrazol-5-yl)methyl)-4-fluoro-6-methyl-3-oxoisoindolin-2-yl)methyl)-5-oxa-7-azaspiro[3.4]octan-6-one]
- EC50: < 0.5 µM
- Enzymatic Emax: B (3≥B>2)

SMILES: Cn1ncc(Cl)c1CC1c2ccccc2C(=O)N1C[C@]1(F)C[C@]2(CNC(=O)O2)C1 (stereo partly drawn) [Compound 507, (2s,4s)-2-((1-((4-chloro-1-methyl-1H-pyrazol-5-yl)methyl)-3-oxoisoindolin-2-yl)methyl)-2-fluoro-5-oxa-7-azaspiro[3.4]octan-6-one]
- EC50: ≥ 5 µM
- Enzymatic Emax: B (3≥B>2)

SMILES: Cn1ncc(Cl)c1CC1c2ccccc2C(=O)N1CC1CC2(CN=C(NC#N)O2)C1 (stereo not drawn) [Compound 520, N-(2-((1-((4-chloro-1-methyl-1H-pyrazol-5-yl)methyl)-3-oxoisoindolin-2-yl)methyl)-5-oxa-7-azaspiro[3.4]oct-6-en-6-yl)cyanamide]
- EC50: ≥ 5 µM
- Enzymatic Emax: C (2≥C)

SMILES: Cn1ncc(Cl)c1CC1c2ccccc2C(=O)N1C/C=C/c1nn[nH]c1Cl (stereo not drawn) [Compound 525, (E)-3-((4-chloro-1-methyl-1H-pyrazol-5-yl)methyl)-2-(3-(5-chloro-1H-1,2,3-triazol-4-yl)allyl)isoindolin-1-one]
- EC50: ≥ 5 µM
- Enzymatic Emax: C (2≥C)
